In patent US20200069691A1, “HETEROCYCLIC COMPOUNDS AS HIV PROTEASE INHIBITORS” (Merck Sharp & Dohme Corp., priority 2016, published 2020):

Target: T1, wild-type HIV-1 protease (Human immunodeficiency virus type 1 group M subtype B, UniProt P04585)
T1 construct: Escherichia coli expressed wild-type HIV-1 protease protein
Assay: Assay for Inhibition of Microbial Expressed HIV Protease (peptide substrate cleavage, LC-MS/MS readout)
Assay type: biochemical
Conditions: E. coli expressed wild-type HIV-1 protease, mean of at least two independent experiments, read-out: HIV Pr Enzyme HIV1 PR IC50
Outline: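 Cleavage of Val-Ser-Gln-Asn-(β-naphthyl)Ala-Pro-Ile-Val (400 μM) by recombinant HIV-1 protease ([…]) ran 1 h at 30 °C after a 30 min room-temperature inhibitor preincubation in 50 mM sodium acetate pH 5.5. Product peak areas by LC-MS/MS gave inhibition; values average at least two independent runs.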

Point of comparison: `Cn1ncc2c1CN(C(=O)c1cccc(CN3C(=N)NC(c4ccccc4)(c4ccccc4)C3=O)c1)C2` [Compound 241, 2-imino-3-{3-[(1-methyl-4,6-dihydropyrrolo [3,4-c]pyrazol-5(1H)-yl)carbonyl]benzyl}-5,5-diphenylimidazolidin-4-one], IC50 15.6 nM. Against it:
- N#Cc1cccc(-c2ncc3c(n2)CN(C(=O)c2cc(CN4C(=N)N[C@](CCCC(F)(F)F)(c5ccc(F)cc5)C4=O)ccc2C(F)(F)F)C3)c1 [Compound 79, 3-(6-{[5-{[(4R)-4-(4-fluorophenyl)-2-imino-5-oxo-4-(4,4,4-trifluoro-butyl)imidazolidin-1-yl]methyl}-2-(trifluoromethyl)-phenyl]carbonyl}-6,7-dihydro-5H-pyrrolo[3,4-d]pyrimidin-2-yl)benzonitrile] — within 1.5-fold, 10.8 nM
- C=Cc1c(C(F)(F)F)nc2n1CCN(C(=O)c1cccc(CN3C(=N)NC(c4ccccc4)(c4ccccc4)C3=O)c1)C2 [Compound 297, 3-(3-{[3-ethenyl-2-(trifluoromethyl)-5,6-dihydroimidazo [1,2-a]pyrazin-7(8H)-yl]carbonyl}benzyl)-2-imino-5,5-diphenylimidazolidin-4-one] — 2.8-fold higher, 43.5 nM
- CC(C)CC(c1ccc(C(F)(F)F)c(C(=O)N2CCn3c(nnc3C(F)(F)F)C2)c1)N1C(=N)N[C@](C[C@@H]2CCOC2)(c2ccc(F)cc2)C1=O (stereo partly drawn) [Compound 42, (5R)-5-(4-fluorophenyl)-2-imino-3-{3-methyl-1-[4-(trifluoromethyl)-3-{[3-(trifluoromethyl)-5,6-dihydro-[1,2,4]triazolo[4,3-a]pyrazin-7(8H)-yl]carbonyl}phenyl]butyl}-5-[(3R)-tetrahydrofuran-3-ylmethyl]-imidazolidin-4-one] — 3.7-fold lower, 4.26 nM
- N=C1NC(CCC2CC2)(c2cccc(C(F)(F)F)c2)C(=O)N1Cc1ccc(C(F)(F)F)c(C(=O)N2Cc3nccnc3C2)c1 (stereo not shown) [Compound 114, 5-(2-cyclopropylethyl)-3-[3-(5,7-dihydro-6H-pyrrolo[3,4-b]pyrazin-6-ylcarbonyl)-4-(trifluoromethyl)-benzyl]-2-imino-5-[3-(trifluoromethyl)-phenyl]-imidazolidin-4-one] — 2.2-fold higher, 34.5 nM
- CN1CCN(c2cncc(-c3ncc4c(n3)CN(C(=O)c3cc(CN5C(=N)N[C@](CCCC(F)(F)F)(c6ccc(F)cc6)C5=O)ccc3C(F)(F)F)C4)c2)CC1 [Compound 25, (5R)-5-(4-fluorophenyl)-2-imino-3-[3-({2-[5-(4-methylpiperazin-1-yl)pyridin-3-yl]-5,7-dihydro-6H-pyirolo[3,4-d]pyrimidin-6-yl}carbonyl)-4-(trifluoromethyl)benzyl]-5-(4,4,4-trifluorobutyl)imidazolidin-4-one] — 6-fold lower, 2.59 nM
- CC(C)CC1(c2ccccc2)NC(=N)N(Cc2ccc(C(F)(F)F)c(C(=O)N3Cc4nccnc4C3)c2)C1=O (stereo not shown) [Compound 142, 3-[3-(5,7-dihydro-6H-pyrrolo[3,4-b]pyrazin-6-ylcarbonyl)-4-(trifluoromethyl)benzyl]-2-imino-5-(2-methylpropyl)-5-phenylimidazolidin-4-one] — 4.8-fold lower, 3.23 nM
- CC(C)CC1(c2ccccc2)NC(=N)N(Cc2cc(C(=O)N3Cc4nccnc4C3)ccn2)C1=O (stereo not shown) [Compound 403, 3-{[4-(5,7-dihydro-6H-pyrrolo[3,4-b]pyrazin-6-ylcarbonyl)pyridin-2-yl]methyl}-2-imino-5-(2-methylpropyl)-5-phenylimidazolidin-4-one] — 3.5-fold higher, 54.3 nM
- CC(C)CC1(c2ccccc2)NC(=N)N(Cc2ccc(C(F)(F)F)c(C(=O)N3CCC3)c2)C1=O (stereo not shown) [Compound 179, 3-[3-(azetidin-1-ylcarbonyl)-4-(trifluoromethyl)benzyl]-2-imino-5-(2-methylpropyl)-5-phenylimidazolidin-4-one] — 5-fold higher, 78.6 nM
- N=C1NC(c2ccccc2)(c2ccccc2)C(=O)N1Cc1cccc(C(=O)N2Cc3cccc(F)c3C2)c1 [Compound 194, 3-{3-[(4-fluoro-1,3-dihydro-2H-isoindol-2-yl)carbonyl]benzyl}-2-imino-5,5-diphenylimidazolidin-4-one] — 2.3-fold higher, 35.7 nM
- N#Cc1cccc(C2(c3ccc(F)cc3)NC(=N)N(Cc3cccc(C(=O)N4Cc5ccccc5C4)c3)C2=O)c1 (stereo not shown) [Compound 262, 3-{1-[3-(1,3-dihydro-2H-isoindol-2-ylcarbonyl)benzyl]-4-(4-fluorophenyl)-2-imino-5-oxoimidazolidin-4-yl}benzonitrile] — 1.6-fold higher, 24.4 nM
- CC(C)CC1(c2ccccc2)NC(=N)N(Cc2ccc(C(F)(F)F)c(C(=O)N3CCN(C)C(=O)C3)c2)C1=O (stereo not shown) [Compound 156, 4-{[5-{[2-imino-4-(2-methylpropyl)-5-oxo-4-phenylimidazolidin-1-yl]methyl}-2-(trifluoromethyl)phenyl]carbonyl}-1-methylpiperazin-2-one] — within 1.5-fold, 13.5 nM
- Cc1ncc2c(n1)CN(C(=O)c1cccc(CN3C(=N)NC(c4ccccc4)(c4ccccc4)C3=O)c1)C2 [Compound 290, 2-imino-3-{3-[(2-methyl-5,7-dihydro-6H-pyrrolo[3,4-d]pyrimidin-6-yl)carbonyl]benzyl}-5,5-diphenylimidazolidin-4-one] — 2.3-fold higher, 36.3 nM
- N=C1NC(c2ccc(F)cc2)(c2ccc(F)cc2)C(=O)N1Cc1ccc(C(F)(F)F)c(C(=O)N2Cc3nccnc3C2)c1 [Compound 139, 3-[3-(5,7-dihydro-6H-pyrrolo[3,4-b]pyrazin-6-ylcarbonyl)-4-(trifluoromethyl)benzyl]-5,5-bis(4-fluorophenyl)-2-iminoimidazolidin-4-one] — 5.3-fold lower, 2.93 nM
- CS(=O)(=O)c1cccc(-c2ncc3c(n2)CN(C(=O)c2cc(CN4C(=N)N[C@](CCCC(F)(F)F)(c5ccc(F)cc5)C4=O)ccc2C(F)(F)F)C3)c1 [Compound 24, (5R)-5-(4-fluorophenyl)-2-imino-3-[3-({2-[3-(methylsulfonyl)phenyl]-5,7-dihydro-6H-pyrrolo[3,4-d]pyrimidin-6-yl}carbonyl)-4-(trifluoromethyl)benzyl]-5-(4,4,4-trifluorobutyl)imidazolidin-4-one] — 6.5-fold lower, 2.41 nM
- CC(C)CC[C@]1(c2ccccc2)NC(=N)N(C(CC(C)C)c2ccc(C(F)(F)F)c(C(=O)N3Cc4nccnc4C3)c2)C1=O (stereo partly drawn) [Compound 31, (5R)-3-{1-[3-(5,7-dihydro-6H-pyrrolo[3,4-b]pyrazin-6-ylcarbonyl)-4-(trifluoromethyl)-phenyl]-3-methylbutyl}-2-imino-5-(3-methylbutyl)-5-phenylimidazolidin-4-one] — 5-fold lower, 3.13 nM
- N=C1NC(CCC2CC2)(c2ccc(-c3cccnc3)cc2)C(=O)N1Cc1ccc(C(F)(F)F)c(C(=O)N2Cc3nccnc3C2)c1 (stereo not shown) [Compound 76, 5-(2-cyclopropylethyl)-3-[3-(5,7-dihydro-6H-pyrrolo[3,4-b]pyrazin-6-ylcarbonyl)-4-(trifluoromethyl-)benzyl]-2-imino-5-(4-pyridin-3-ylphenyl) imidazolidin-4-one] — 1.5-fold lower, 10.4 nM
- CC(C)C[C@]1(c2ccccc2)NC(=N)N([C@H](C)c2ccc(C(F)(F)F)c(C(=O)N3Cc4nccnc4C3)c2)C1=O [Compound 147, (5R)-3-{(1R)-1-[3-(5,7-dihydro-6H-pyrrolo[3,4-b]pyrazin-6-ylcarbonyl)-4-(trifluoromethyl)phenyl]ethyl}-2-imino-5-(2-methylpropyl)-5-phenylimidazolidin-4-one] — 3.3-fold lower, 4.75 nM
- CC(C)CC[C@]1(c2ccc(F)cc2)NC(=N)N(C(c2ccc(C(F)(F)F)c(C(=O)N3Cc4nccnc4C3)c2)C2CCCC2)C1=O (stereo partly drawn) [Compound 101, (5R)-3-{cyclopentyl[3-(5,7-dihydro-6H-pyrrolo[3,4-b]pyrazin-6-ylcarbonyl)-4-(trifluoromethyl)-phenyl]methyl}-5-(4-fluorophenyl)-2-imino-5-(3-methylbutyl)-imidazolidin-4-one] — within 1.5-fold, 23.2 nM
- CN(C)C(=O)N1CCN(C(=O)c2cccc(CN3C(=N)NC(c4ccccc4)(c4ccccc4)C3=O)c2)CC1 [Compound 357, 4-({3-[(2-imino-5-oxo-4,4-diphenylimidazolidin-1-yl)methyl]phenyl}carbonyl)-N,N-dimethylpiperazine-1-carboxamide] — 5.8-fold higher, 91.2 nM
- N=C1NC(c2ccccc2)(c2ccccc2)C(=O)N1Cc1cc(C(=O)N2Cc3ccccc3C2)ccn1 [Compound 396, 3-{[4-(1,3-dihydro-2H-isoindol-2-ylcarbonyl)pyridin-2-yl]methyl}-2-imino-5,5-diphenylimidazolidin-4-one] — within 1.5-fold, 16.7 nM
- N#Cc1ncc2c(n1)CN(C(=O)c1cncc(CN3C(=N)NC(c4ccc(F)cc4)(c4ccc(F)cc4)C3=O)c1)C2 [Compound 393, 6-[(5-{[4,4-bis(4-fluorophenyl)-2-imino-5-oxoimidazolidin-1-yl]methyl}pyridin-3-yl)carbonyl]-6,7-dihydro-5H-pyrrolo[3,4-d]pyrimidine-2-carbonitrile] — 4.3-fold higher, 67.1 nM
- N=C1N[C@](CCCC(F)(F)F)(c2ccc(F)cc2)C(=O)N1Cc1ccc(C(F)(F)F)c(C(=O)N2Cc3cnc(-c4ccc5ncnn5c4)nc3C2)c1 [Compound 32, (5R)-5-(4-fluorophenyl)-2-imino-3-{3-[(2-[1,2,4]triazolo[1,5-a]pyridin-6-yl-5,7-dihydro-6H-pyrrolo[3,4-d]pyrimidin-6-yl)carbonyl]-4-(trifluoromethyl)benzyl}-5-(4,4,4-trifluorobutyl)imidazolidin-4-one] — 4.9-fold lower, 3.21 nM
- N=C1NC(c2ccc(F)cc2)(c2ccc(F)cc2)C(=O)N1Cc1cccc(C(=O)N2CCN(c3ncccn3)CC2)c1 [Compound 280, 5,5-bis(4-fluorophenyl)-2-imino-3-{3-[(4-pyrimidin-2-ylpiperazin-1-yl)carbonyl]benzyl} imidazolidin-4-one] — 2-fold higher, 31 nM
- N#Cc1ncc2c(n1)CN(C(=O)c1cc(CN3C(=N)N[C@](CCCC(F)(F)F)(c4ccc(F)cc4)C3=O)ccc1C(F)(F)F)C2 [Compound 58, 6-{[5-{[(4R)-4-(4-fluorophenyl)-2-imino-5-oxo-4-(4,4,4-trifluorobutyl)imidazolidin-1-yl]methyl}-2-(trifluoromethyl)-phenyl]carbonyl}-6,7-dihydro-5H-pyrrolo[3,4-d] pyrimidine-2-carbonitrile] — 2.4-fold lower, 6.43 nM
